Structures are written as SMILES. Like-named read-outs stand apart in the source and are kept apart here.

The nature of data set [1]: Assay of plasma and perilymph for lamotrigine (pharmacokinetic evaluation). It is filed as in vivo. Particulars: guinea pig, single oral dose 20 mg/kg; for concentration at 15 h / Tmax / Cmax: male, albino. On the procedure:
All solutions were prepared fresh on the day of dosing and stored at 2-8° C., protected from light, between dosing sessions. In order to establish the otoprotective properties of LTG, a pharmacokinetic evaluation study was designed to establish penetration of LTG into guinea pig perilymph and plasma. A total of 17 healthy adult male albino guinea pigs were used. […] Two untreated control animals were also sampled for comparison. […] After the terminal blood sample had been taken, the animal received an overdose of anaesthetic and was decapitated. The bulla was removed and thoroughly cleaned to remove all tissue and fluids. […] Levels of LTG in both plasma and perilymph were determined using a protein precipitation extraction procedure using high performance liquid chromatography (HPLC) with ultraviolet (UV) detection. The LTG retention time was 5.4 minutes and quantification was carried out using peak areas.

Data set [2] concerns cochlea nerve compound action potential (CAP). Put plainly: Otoprotection after acute noise insult: CAP threshold shifts. It is filed as in vivo, guinea pig. Particulars: 20 mg/kg about 2 hours before 15 minutes filtered (5-20 KHz) noise; 8, 16, 24 and 30 KHz. On the procedure:
Sedation was achieved using an intramuscular injection of 0.5 mL/kg medetomidine followed by an intraperitoneal injection of 6 mL/kg fentanyl approximately 10 minutes later (loss of the pedal reflex was used to determine sufficient sedation for surgery).
The cochlea nerve compound action potential (CAP) was generated in response to discrete acoustic stimuli. It was used to determine both control and treatment related changes in auditory thresholds by measuring changes in CAP latency (milliseconds) and amplitude (μVolts).
Tone ‘pip’ stimuli of 5 millisecond duration were computer generated at 8, 16, 24 and 30 KHz and fed to an attenuator (1 dB resolution). The tone pip was then fed to a Bruel and Kjaer 4192, (microphone) serving as an acoustic driver, which was placed inside an ear speculum coupled to the ear canal. CAP averaging was performed between ×50 to 100 times and the CAP threshold was determined by visual inspection of the recorded time signal. Accuracy was typically between 1-3 dB, using a CAP detection criterion of approximately 1 μV.
Animals were then exposed to 15 minutes filtered (5-20 KHz) free field noise (approximately […]) during which ESAC measurements were made at 5 minute intervals.

For data set [3], the system named is supramaximal electroshock (MES) model. As to conditions: rat; cited from earlier work.

For `Nc1nnc(-c2cccc(Cl)c2Cl)c(N)n1` [LTG, 3,5-Diamino-6-(2,3-dichlorophenyl)-1,2,4-triazine], in data set [1] (timepoints 1-15 hours), the “levels in perilymph relative to plasma” value is reported as “approximately twice”. Moreover, the concentration at 15 h is 3.2 µg/mL in data set [1] (perilymph, read-out: mean perilymph LTG level after the 15 hour sampling period) and 1 µg/mL in data set [1] (plasma, read-out: mean plasma LTG level after the 15 hour sampling period). The Tmax in data set [1] (perilymph, read-out: perilymph approximate mean time of maximum concentration (Tmax)) is roughly 2 h; in data set [1] (plasma, read-out: plasma Tmax), 1 h. Moreover, the Cmax was 6.14 µg/mL in data set [1] (perilymph, read-out: perilymph mean maximum concentration (Cmax)) and 3.59 µg/mL in data set [1] (plasma, read-out: mean plasma Cmax). Further, the “CAP threshold shifts after noise versus noise control” value in data set [2] was “mean thresholds were higher in the LTG treated animals and reached statistical significance at 8 kHz”. The “effective oral dose (ED50)” value in data set [3] is reported as 6.8 mg/kg.

These data come from patent US20040023962A1, “Use of medicaments” (priority 2000, published 2004).
